# Test results: patent publication EP1096932B1, “ANTIHYPERTENSIVE COMBINATION OF VALSARTAN AND CALCIUM CHANNEL BLOCKER” (Novartis Pharma AG, priority 1998, dated 2000)
# System: diabetic SHRs
# Test: Survival of streptozotocin-diabetic SHRs under drug treatment
# Type: in vivo, spontaneously hypertensive rats (SHR)
# Conditions: twice daily gavage
# Description: In diabetic SHRs the presence of hypertension is an important determinant of renal injury, manifesting in functional changes such as albuminuria and in ultrastructural injury. For example, diabetic SHRs show ventricular hypertrophy and develop nephropathy resulting in sudden death events. Accordingly, the use of this animal model is well-applied in the art and suitable for evaluating effects of drugs on the development of diabetic renal diseases. There is a strong need to achieve a significant increase of the survival rate by treatment of hypertension in diabetes especially in NIDDM. It is known that CCBs are not considered as first line antihypertensives e.g. in NIDDM treatment. Though some kind of reduction of blood pressure may be achieved with CCBs, they may not be indicated for the treatment of renal disorders associated with diabetes.
# Diabetes is induced in SHRs aged about 6 to 8 weeks weighing about 250 to 300 g by treatment e.g. with streptozotocin. The drugs are administered by twice daily gavage. Untreated diabetic SHRs are used as control group (group 1). […] On a regular basis, besides other parameters the survival rate after 21 weeks of treatment is being monitored. In week 21 of the study, following survival rates have been determined: […]
Structure (SMILES),"Survival Rate (30 mg/kg of valsartan, week 21 (group 2))","Survival Rate (20 mg/kg of verapamil, week 21 (group 3))"
"CCCCC(=O)N(Cc1ccc(-c2ccccc2-c2nnn[nH]2)cc1)[C@H](C(=O)O)C(C)C [valsartan, (S)-N-(1-carboxy-2-methyl-prop-1-yl)-N-pentanoyl-N-[2'(1H-tetrazol-5-yl)biphenyl-4-yl-methyl]amine]",45.9%,
COc1ccc(CCN(C)CCCC(C#N)(c2ccc(OC)c(OC)c2)C(C)C)cc1OC (centres unmarked) [verapamil],,42.9%
